Earlier results as cited in patent US20090018125A1, “Pharmaceutical Composition and Its Use” (Tillotts Pharma AG, priority 2004, published 2009).

Test system: human squamous carcinoma line and multidrug-resistant and carboplatin-resistant variants
Conditions: cells pre-treated with GLA

CCCCC/C=C\C/C=C\C/C=C\CCCCC(=O)O [GLA, gamma-linoleic acid]
enhancement of vincristine toxicity: up to 40%
enhancement of toxicity of carboplatin (depending on GLA concentration, human squamous carcinoma and carboplatin-resistant variant cell lines): ≥ 50%
